Consider twelve substances from US20080220450A1, “Population Based Prediction Methods for Immune Response Determinations and Methods for Verifying Immunological Response Data” (Danisco US, Inc., Genencor Division, priority 2004, published 2008).

One test concerns the target HLA-DR6(13). Put plainly: Peptide binding competition assay, HLA class II. Also noted: species or system human. As to conditions: competition with standard peptide. The procedure: In addition to the above I-MUNE® assay, peptide binding assays were also performed. The peptide binding assay used during the development of the present invention is known in the art (Southwood et al., J. Immunol., 160:3363-3373 [1998]). Briefly, HLA-DR and -DQ molecules were purified from a panel of EBV transformed cell lines. A competition assay was performed with a characterized standard peptide, and the unknown peptide. The amount of unknown peptide required to compete 50% of the standard peptide binding was then determined (indicated as the IC50).
The IC50 for HLA class II protein binding was determined for peptide epitopes defined by the in two related industrial bacterial proteases (See, FIG. 17). The peptides were tested in a competition assay for binding to 18 different HLA-DR and -DQ proteins. […] This likely explains the association seen in the data for a response to this peptide with HLA-DR6(13) donors (p=0.00015; relative risk=7.22, n=113 donors tested). Those results with values less than 500 nM were considered to be good binders and are highlighted in bold in FIG. 17. Also, in this Figure, degeneracy indicates the number of HLA Class II proteins that bind with an IC50 of less than 500 nM out of the 18 total alleles tested.

Test [1] has as its system CD4+ T-cells and dendritic cells. In words: I-MUNE assay: CD4+ T-cell proliferation to 15-mer peptide sets presented by dendritic cells. The arrangement: Structure Value: scale not given here; quantitative response among responders: unit not given here. The format is cell-based, human. As to conditions: for Average percent response to epitope peptide: Table 6, repeat tests of the epitope peptide on discrete donor groups; for Response/Peptide: SI>2.95; for effect of substitution on percent of responders to the epitope: peptide #49 variants, 69 donors; for statistical significance of the peptide response: conservative and non-conservative Poisson methods; for response to the peptide: beta-lactamase peptide set, 3× above the background. As to the method:
All peptides were obtained from a commercial source (Mimotopes, San Diego, C-A). For the I-MUNE® assay system described herein, 15-mer peptides offset by 3 amino acids that described the entire sequence of the proteins of interest were synthesized in a multipin format (See, Maeji et al., J. Immunol. Meth., 134:23-33 [1990]). Peptides were resuspended in DMSO at approximately 1 to 2 mg/ml, and stored at −70° C. prior to use. Each peptide was tested at least in duplicate, although for small peptide sets (e.g., Ber e 1), the peptides were routinely tested in triplicate.
Volunteer donor human blood buffy coat samples were obtained from two commercial sources (Stanford Blood Center, Palo Alto, Calif., and the Sacramento Medical Foundation, Sacramento, Calif.). Buffy coat samples were further purified by density separation. Each sample was HLA typed for HLA-DR and HLA-DQ using a commercial PCR-based kit (Bio-Synthesis).
Monocytes were purified by adherence to plastic in AIM V medium (Gibco/Life Technologies). Adherent cells were cultured in AIM V media containing 500 units/ml of recombinant human IL-4 (Endogen) and 800 units/ml recombinant human GM-CSF (Endogen) for 5 days. On day 5, recombinant human IL-1α (Endogen) and recombinant human TNF-α (Endogen) were added to 50 units/ml and 0.2 units/ml, respectively. On day 7, the fully matured dendritic cells were treated with 50 μg/ml mitomycin C (Sigma) for 1 hour at 37° C. Treated dendritic cells were dislodged with 50 mM EDTA in PBS, washed in AIM V medium, counted, and resuspended in AIM V media at 2×10^5 cells/ml.
CD4^+ T-cells were purified by negative selection from frozen aliquots of human peripheral blood mononuclear cells (PBMC) using Cellect CD4 columns (Cedarlane). […] CD4^+ T-cells were resuspended in AIM V media at 2×10^6 cells per ml.
CD4^+ T-cells and dendritic cells were plated in round-bottomed 96 well format plates at 100 μl of each cell mix per well. Peptide was added to a final concentration of approximately 5 ug/ml in 0.25-0.5% DMSO. Control wells contained 0.5% DMSO without added peptide. Each peptide was tested in duplicate. Cultures were incubated at 37° C., in 5% CO2 for 5 days. On day 5, 0.5 uCi of tritiated thymidine (NEN DuPont) was added to each well. On day 6, the cultures were harvested onto glass fiber mats using a TomTec manual harvester (TomTec), then processed for scintillation counting. Proliferation was assessed by determining the average counts per minute (CPM) value for each set of duplicate wells (TriLux Beta). This method is also described in U.S. Pat. No. 6,218,165 and Stickler et al., J. Immunother. 23: 654-660 (2000), both of which are herein incorporated by reference.
For each individual buffy coat sample, the average CPM values obtained in the I-MUNE® assay for all of the peptides were analyzed. The average CPM values for each peptide were divided by the average CPM value for the control (DMSO only) wells to determine the “stimulation index” (SI). Donors were tested with each peptide set until an average of at least two responses per peptide were compiled. The data for each protein was graphed showing the percent responders to each peptide within the set. A positive response was collated if the SI value was equal to or greater than 2.95. This value was chosen as it approximates a difference of three standard deviations in a normal population distribution. For each protein assessed, positive responses to individual peptides by individual donors were compiled. To determine the background response for a given protein, the percent responders for each peptide in the set were averaged and a standard deviation was calculated. SI values for each donor were compiled for each peptide set, and the percent of responders reported.

Setting [2] is: Table 3, Stanford and Sacramento donors.

As a reminder, the IC50 is the concentration at which inhibition is half-maximal. As for “BPN′ Y217L #24: 15-mer epitope peptide number 24 of BPN′ Y217L, amino acids 70-84 (GTVAALNNSIGVLGV)”, the 50% inhibitory concentration (IC50) on HLA-DR6(13) turned out to be 0.69 nM. For the same substance, in test [1], the “Average percent response to epitope peptide” value (“Average percent response” for short) stood at 11.69%.
In the case of “BPN′ Y217L#37: 15-mer epitope peptide number 37 of BPN′ Y217L, amino acids 109-123 (NGIEWAIANNMDVIN)”, the “Average percent response” value in test [1] is 12.91%.
For the substance “Ecotin: serine protease inhibitor from E. coli K12; GenBank Accession No. NP—416713”, in test [1] (Table 3), the Background % came to 5.69% and the Response/Peptide amounted to 3.98. For the same substance, the “Structure Value” in test [1] (setting [2]) is 0.64.
For the substance “GTTRLYANASFGLFG (synthetic variant) [I155F]”, the “effect of substitution on percent of responders to the epitope” value in test [1] was “had little effect”.
In the case of “GTTRLYANASIGLFG (listed as Enterobacter cloacae) [Peptide #49]”, in test [1], the “statistical significance of the peptide response” value (shortened to “statistical significance”) is on record as “reached statistical significance using less conservative analyses”.
In the case of “GTTRLYANASLGLFG (synthetic variant) [I155L]”, the “effect of substitution on percent of responders to the epitope” value in test [1] is given as “had little effect”.
On to “GTTRLYANASVGLFG (synthetic variant) [I155V]”, for which the “effect of substitution on percent of responders to the epitope” value in test [1] was “increased the percent of responders to the modified epitope sequence”.
With “GTTRSYANASIGLFG (synthetic variant) [L149S]”, the “effect of substitution on percent of responders to the epitope” value in test [1] is recorded as “had an effect on the epitope response rate”.
On to “ITPLMKAQSVPGMAV (listed as Enterobacter cloacae) [Peptide #6]”, for which, in test [1], the “statistical significance” value is given as “reached statistical significance using less conservative analyses”.
On to “MLDLATYTAGGLPLQ (listed as Enterobacter cloacae) [Peptide #36]”, for which the “quantitative response among responders” value in test [1] (DR1+ responders) amounted to 7.8. Also, the “quantitative response among responders” value in test [1] (DR1− responders) came out at 4.42. For the same substance, in test [1], the “response to the peptide” value came to 12.11% and the “statistical significance” value is reported as “significant (p<0.05)”.
On the same counts, the results for “TGGFGSYVAFLPEKQ (TGGFGSYVAFIPEKQ; listed as Enterobacter cloacae) [Peptide #107]” are 5.4, 4.2, 12.11% and “significant (p<0.05)”.
In the case of hTpo: human thrombopoietin, in test [1], the “structure value, in words” value is listed as “comparatively high” and the “Average percent response” value stood at 9.18%. In addition, in test [1] (Table 2), the “Average Background” value is 2.56, the “Number of epitope regions” value came to 1, the Response per peptide is 2.54 and the Structure Value is listed as 0.65. Moreover, in test [1] (Table 3), the Background % worked out at 2.53% and the Response/Peptide stood at 2.24. In addition, the “Structure Value” in test [1] (setting [2]) was 0.65. In addition, in test [1] (Table 5, background response value), the “Background +/− sd” value is given as 2.54 +/− 2.23. The substance also had a Responses/peptide found in test [1] (Table 5, determined experimentally) of 2.51.
